The values below come from ChEMBL document CHEMBL6120940, “Discovery of N-Aryl-N'-[4-(aryloxy)cyclohexyl]squaramide-Based Inhibitors of LXR/SREBP-1c Signaling Pathway Ameliorating Steatotic Liver Disease: Navigating the Role of SIRT6 Activation” (J Med Chem, 2024).

Assay [1] is described as follows: Downregulation of SREBP-1c mRNA expression in human HepG2 cells at 10 uM pretreated with compound for 30 mins followed by T0901317 addition and measured after 12 hrs by RT-qPCR analysis relative to control. It is filed as functional. The note with it: time 12.5 hrs.
Assay [2] concerns the target T1, Sterol regulatory element-binding protein 1 (Homo sapiens) (UniProt P36956).
T1 sequence (whole entry): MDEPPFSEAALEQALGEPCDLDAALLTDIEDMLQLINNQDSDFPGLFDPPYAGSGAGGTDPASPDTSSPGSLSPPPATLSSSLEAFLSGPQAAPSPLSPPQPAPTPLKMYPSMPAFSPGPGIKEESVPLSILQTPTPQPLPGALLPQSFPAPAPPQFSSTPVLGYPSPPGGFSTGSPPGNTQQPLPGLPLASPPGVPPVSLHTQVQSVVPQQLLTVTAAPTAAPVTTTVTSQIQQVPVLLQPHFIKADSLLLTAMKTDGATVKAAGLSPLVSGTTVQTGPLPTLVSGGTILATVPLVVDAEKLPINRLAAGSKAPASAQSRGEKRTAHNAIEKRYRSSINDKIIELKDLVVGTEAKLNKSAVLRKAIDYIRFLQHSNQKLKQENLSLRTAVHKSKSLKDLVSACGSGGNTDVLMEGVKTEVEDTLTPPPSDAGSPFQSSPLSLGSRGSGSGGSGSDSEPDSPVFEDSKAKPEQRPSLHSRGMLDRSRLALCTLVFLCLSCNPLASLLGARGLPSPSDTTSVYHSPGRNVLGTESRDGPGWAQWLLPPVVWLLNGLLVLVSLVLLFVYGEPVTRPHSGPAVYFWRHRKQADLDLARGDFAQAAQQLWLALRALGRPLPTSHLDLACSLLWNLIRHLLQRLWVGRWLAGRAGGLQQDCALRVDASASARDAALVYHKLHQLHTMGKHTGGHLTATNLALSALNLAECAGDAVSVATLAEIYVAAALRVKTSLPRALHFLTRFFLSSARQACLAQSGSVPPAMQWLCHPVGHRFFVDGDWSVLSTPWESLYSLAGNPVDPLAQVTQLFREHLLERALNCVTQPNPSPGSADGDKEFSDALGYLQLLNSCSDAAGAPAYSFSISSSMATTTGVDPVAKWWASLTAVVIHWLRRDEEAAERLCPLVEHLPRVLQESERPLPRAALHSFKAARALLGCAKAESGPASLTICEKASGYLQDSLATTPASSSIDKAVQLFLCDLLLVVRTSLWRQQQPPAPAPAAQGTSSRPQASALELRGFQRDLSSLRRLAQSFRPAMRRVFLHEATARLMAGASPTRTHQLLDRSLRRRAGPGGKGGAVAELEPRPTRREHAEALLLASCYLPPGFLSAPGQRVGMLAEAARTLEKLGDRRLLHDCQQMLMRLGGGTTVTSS
In words: Inhibition of SREBP-1c transcriptional activity in human HepG2 cells expressing LXRalpha/RXRalpha assessed as reduction in SRE-luciferase level at 10 uM pretreated with compound for 30 mins followed by T0901317 addition and measured after 12 hrs by Dual-Glo luciferase assay relative to control. It is filed as cell-based. The note with it: time 12.5 hrs.

Another assay deals with HepG2. In words: Cytotoxicity against human HepG2 cells at 10 uM measured after 24 hrs by CCK-8 method relative to control. The class given is functional. Background: Formazan colour is commonly taken as a measure of viable cells.

Consider `N#Cc1ccc(O[C@H]2CC[C@H](Nc3c(Nc4ccccc4)c(=O)c3=O)CC2)cc1`, for which the results for the Activity (in assay [1]; in the assay with HepG2) were 84.8% and 90.6%, respectively. In addition, in assay [2], the inhibition – broadly, the change of the read-out against control, counted positive when it falls – was 80.1%.
On to `COc1ccc(Nc2c(N[C@H]3CC[C@H](Oc4ccc(C(F)(F)F)cc4)CC3)c(=O)c2=O)cc1`, for which the Activity in assay [1] is given as 28.7%; with HepG2, 94.8%. For the same compound, the inhibition in assay [2] stood at 35.6%.
As for `COc1ccccc1Nc1c(N[C@H]2CC[C@H](Oc3ccc(C(F)(F)F)cc3)CC2)c(=O)c1=O`, the values for the Activity (in assay [1]; in the assay with HepG2) were 30% and 77.8%, respectively. Moreover, in assay [2], the inhibition was determined as 21.5%.
Consider `COC(=O)c1ccc(Nc2c(N[C@H]3CC[C@H](Oc4ccc([N+](=O)[O-])cc4)CC3)c(=O)c2=O)cc1`, for which the figures for the Activity (in assay [1]; in the assay on HepG2) were 26.7% and 91%, respectively. The inhibition in assay [2] worked out at 41.7%.
As for `COC(=O)c1ccc(Nc2c(N[C@H]3CC[C@H](Oc4ccc(S(C)(=O)=O)cc4)CC3)c(=O)c2=O)cc1`, the results for the Activity (in assay [1]; in the assay with HepG2) were 22.3% and 90.1%, respectively. Further, the inhibition in assay [2] came out at 40.5%.
On to `O=c1c(Nc2ccccc2)c(N[C@H]2CC[C@H](Oc3ccc([N+](=O)[O-])cc3)CC2)c1=O`, for which the Activity in assay [1] turned out to be 82.7%; in the assay with HepG2, 102.8%. Moreover, the inhibition in assay [2] is 59.6%.
Turning to `COc1cccc(Nc2c(N[C@H]3CC[C@H](Oc4ccc(C(F)(F)F)cc4)CC3)c(=O)c2=O)c1`, the Activity in assay [1] stood at 69.9%; with HepG2 it was 97.4%. In assay [2], the inhibition amounted to 41.5%.
As to `N#Cc1ccc(O[C@H]2CC[C@H](Nc3c(Nc4ccc(Cl)cc4)c(=O)c3=O)CC2)cc1`, the Activity in assay [1] came to 36.9%; with HepG2 it was 96.2%. Besides, the inhibition in assay [2] worked out at 87.1%.
For the compound `N#Cc1ccc(O[C@H]2CC[C@H](Nc3c(Nc4ccc(F)cc4)c(=O)c3=O)CC2)cc1`, the Activity in assay [1] was 87.4%; with HepG2, 77%. Further, in assay [2], the inhibition turned out to be 46.2%.
For `CC(C)(C)c1ccc(Nc2c(N[C@H]3CC[C@H](Oc4ccc(C#N)cc4)CC3)c(=O)c2=O)cc1`, the Activity in assay [1] worked out at 61.5%; in the assay with HepG2 it was 87.4%. The inhibition in assay [2] stood at 30.1%.
Take `COc1cccc(Nc2c(N[C@H]3CC[C@H](Oc4ccc(C#N)cc4)CC3)c(=O)c2=O)c1`: the Activity in assay [1] was 60.6%; with HepG2 it was 91.4%. Moreover, in assay [2], the inhibition came to 51.1%.
The corresponding values for `O=c1c(Nc2ccc(Cl)cc2)c(N[C@H]2CC[C@H](Oc3ccc(C(F)(F)F)cc3)CC2)c1=O` are 103.6%, 88.4% and 39.1%.
The matching figures for `COc1cccc(Nc2c(N[C@H]3CC[C@H](Oc4ccc([N+](=O)[O-])cc4)CC3)c(=O)c2=O)c1`: 64.3%, 87.2% and 18%.
With `CC(C)(C)c1ccc(Nc2c(N[C@H]3CC[C@H](Oc4ccc(C(F)(F)F)cc4)CC3)c(=O)c2=O)cc1`, the figures for the Activity (in assay [1]; with HepG2) were 68% and 95.9%, respectively. In assay [2], the inhibition was found to be 32.6%.
As for `COc1ccc(Nc2c(N[C@H]3CC[C@H](Oc4ccc([N+](=O)[O-])cc4)CC3)c(=O)c2=O)cc1`, the Activity in assay [1] was determined as 34.3%; in the assay with HepG2, 88.4%. Also, the inhibition in assay [2] amounted to 57.6%.
With `O=c1c(Nc2ccc(F)cc2)c(N[C@H]2CC[C@H](Oc3ccc([N+](=O)[O-])cc3)CC2)c1=O`, the figures for the Activity (in assay [1]; in the assay with HepG2) were 52.9% and 76.7%, respectively. For the same compound, the inhibition in assay [2] was 23.9%.
Regarding `COC(=O)c1ccc(Nc2c(N[C@H]3CC[C@H](Oc4ccc(C(F)(F)F)cc4)CC3)c(=O)c2=O)cc1`, the results for the Activity (in assay [1]; with HepG2) were 91.6% and 104.7%, respectively. In addition, in assay [2], the inhibition came out at 47.5%.
As for `COc1ccc(Nc2c(N[C@H]3CC[C@H](Oc4ccc(S(C)(=O)=O)cc4)CC3)c(=O)c2=O)cc1`, the Activity in assay [1] was found to be 34.2%; in the assay with HepG2 it was 93.9%. For the same compound, in assay [2], the inhibition is 53.3%.
As to `COc1ccccc1Nc1c(N[C@H]2CC[C@H](Oc3ccc(S(C)(=O)=O)cc3)CC2)c(=O)c1=O`, the Activity in assay [1] is on record as 34.4%; in the assay on HepG2, 962%. Moreover, the inhibition in assay [2] turned out to be 22.2%.
On to `O=c1c(Nc2ccc(F)cc2)c(N[C@H]2CC[C@H](Oc3ccc(C(F)(F)F)cc3)CC2)c1=O`, for which the Activity in assay [1] came out at 59.3%; in the assay on HepG2, 87.8%. Besides, the inhibition in assay [2] amounted to 40%.
For `COc1cccc(Nc2c(N[C@H]3CC[C@H](Oc4ccc(S(C)(=O)=O)cc4)CC3)c(=O)c2=O)c1`, the Activity in assay [1] worked out at 62.5%; in the assay on HepG2, 100.4%. For the same compound, in assay [2], the inhibition came to 51.1%.
With `COc1ccc(Nc2c(N[C@H]3CC[C@H](Oc4ccc(C#N)cc4)CC3)c(=O)c2=O)cc1`, the Activity was determined as 70.6% in assay [1] and 88.3% in the assay on HepG2. Further, the inhibition in assay [2] came out at 35.7%.
As to `CC(C)(C)c1ccc(Nc2c(N[C@H]3CC[C@H](Oc4ccc(S(C)(=O)=O)cc4)CC3)c(=O)c2=O)cc1`, the results for the Activity (in assay [1]; in the assay on HepG2) were 68.5% and 95%, respectively. Besides, in assay [2], the inhibition amounted to 26.9%.
In the case of `O=C(Nc1ccc(Br)cc1)Nc1cccnc1`, the Activity in assay [1] was 56.6%.
For `CS(=O)(=O)c1ccc(O[C@H]2CC[C@H](Nc3c(Nc4ccc(F)cc4)c(=O)c3=O)CC2)cc1`, the Activity in assay [1] stood at 24%; with HepG2 it was 91.3%.
As to `O=c1c(Nc2ccc(Cl)cc2)c(N[C@H]2CC[C@H](Oc3ccc([N+](=O)[O-])cc3)CC2)c1=O`, the Activity in assay [1] is 49.8%; in the assay on HepG2, 78.6%. In addition, in assay [2], the inhibition is 24.3%.
Take `CC(C)(C)c1ccc(Nc2c(N[C@H]3CC[C@H](Oc4ccc([N+](=O)[O-])cc4)CC3)c(=O)c2=O)cc1`: the Activity in assay [1] came out at 50.4%. Further, the inhibition in assay [2] was found to be 42.8%.
`CS(=O)(=O)c1ccc(O[C@H]2CC[C@H](Nc3c(Nc4ccccc4)c(=O)c3=O)CC2)cc1`: the results for the Activity (in assay [1]; in the assay on HepG2) were 76.1% and 76.2%, respectively. For the same compound, the inhibition in assay [2] is 76.2%.
`COC(=O)c1ccc(Nc2c(N[C@H]3CC[C@H](Oc4ccc(C#N)cc4)CC3)c(=O)c2=O)cc1`: the Activity turned out to be 65.9% in assay [1] and 99.1% in the assay with HepG2. In assay [2], the inhibition amounted to 50.4%.
The corresponding values for `O=c1c(Nc2ccccc2)c(N[C@H]2CC[C@H](Oc3ccc(C(F)(F)F)cc3)CC2)c1=O` are 77%, 93.2% and 70.8%.
The matching figures for `CS(=O)(=O)c1ccc(O[C@H]2CC[C@H](Nc3c(Nc4ccc(Cl)cc4)c(=O)c3=O)CC2)cc1`: 47.9%, 90.7% and 107%.
